Results as given in PubChem BioAssay AID1919010 (Molecular Pharmacology Branch, DTP, NCI, 2023).
Values joined by “and” are separate entries in the source; they are usually repeats but may differ in a detail not shown here. Equal entries are not always repeated. Values belong to the compound of their own block, whether it stands above or below them.

System: Hs578T complex spheroid growth, percent test/control
Assay: Anticancer human tumor Hs578T cell line growth inhibition [AhR];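 also: luminescent viability signal as a proxy for spheroid growth; spheroids exposed to agents for one week after three days of growth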
Conditions: for viability, T/C: stronger effect = lower value
Summary of the method: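 Complex tumor spheroids co-cultured with HUVEC and human MSC stroma; AhR antagonists tested in combination with standard-of-care and investigational agents. Top concentration at or near clinical Cmax (else 10 microM), half-log dilutions; growth expressed as percent test/control.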

[1] = curve of first compound, second compound 0.1 µM
[2] = curve of first compound, second compound 0.316 µM
[3] = curve of first compound, second compound 1 µM
[4] = curve of first compound, second compound 3.16 µM
[5] = curve of first compound, second compound 10 µM

- IC50 (curve of compound): 346 nM and 176 nM and 244 nM
SMILES: O=C(C=Cn1cnc(-c2cc(C(F)(F)F)cc(C(F)(F)F)c2)n1)NNc1cnccn1
- viability, T/C (compound 0.00949 µM): 91.2% and 92.5% and 96.9%
- viability, T/C (compound 0.03 µM): 95.9% and 92.7% and 88.6%
- viability, T/C (compound 0.0949 µM): 90.4% and 70.7% and 77.7%
- viability, T/C (compound 0.3 µM): 54.4% and 32.3% and 45.1%
- viability, T/C (compound 0.949 µM): 18.8% and 10% and 17.4%
- viability, T/C (compound 3 µM): 15.7% and 10.8% and 15.9%

- IC50 [1]: > 3000 nM
- IC50 [2]: > 3000 nM
- IC50 [3]: > 3000 nM
- IC50 [4]: > 3000 nM
- IC50 [5]: > 3000 nM
SMILES: CCN(c1cc(-c2ccc(CN3CCOCC3)cc2)cc(C(=O)NCc2c(C)cc(C)[nH]c2=O)c1C)C1CCOCC1 + CC(CO)NC(=O)c1cc(-c2ccc(Cl)cc2)nn(-c2cnn(C)c2)c1=O
- viability, T/C (second compound 0.1 µM, first compound 0.00949 µM): 116%
- viability, T/C (second compound 0.1 µM, first compound 0.03 µM): 112%
- viability, T/C (second compound 0.1 µM, first compound 0.0949 µM): 112%
- viability, T/C (second compound 0.1 µM, first compound 0.3 µM): 102%
- viability, T/C (second compound 0.1 µM, first compound 0.949 µM): 104%
- viability, T/C (second compound 0.1 µM, first compound 3 µM): 112%
- viability, T/C (second compound 0.316 µM, first compound 0.00949 µM): 114%
- viability, T/C (second compound 0.316 µM, first compound 0.03 µM): 112%
- viability, T/C (second compound 0.316 µM, first compound 0.0949 µM): 122%
- viability, T/C (second compound 0.316 µM, first compound 0.3 µM): 109%
- viability, T/C (second compound 0.316 µM, first compound 0.949 µM): 114%
- viability, T/C (second compound 0.316 µM, first compound 3 µM): 98.4%
- viability, T/C (second compound 1 µM, first compound 0.00949 µM): 113%
- viability, T/C (second compound 1 µM, first compound 0.03 µM): 121%
- viability, T/C (second compound 1 µM, first compound 0.0949 µM): 120%
- viability, T/C (second compound 1 µM, first compound 0.3 µM): 107%
- viability, T/C (second compound 1 µM, first compound 0.949 µM): 111%
- viability, T/C (second compound 1 µM, first compound 3 µM): 113%
- viability, T/C (second compound 3.16 µM, first compound 0.00949 µM): 107%
- viability, T/C (second compound 3.16 µM, first compound 0.03 µM): 113%
- viability, T/C (second compound 3.16 µM, first compound 0.0949 µM): 115%
- viability, T/C (second compound 3.16 µM, first compound 0.3 µM): 111%
- viability, T/C (second compound 3.16 µM, first compound 0.949 µM): 104%
- viability, T/C (second compound 3.16 µM, first compound 3 µM): 106%
- viability, T/C (second compound 10 µM, first compound 0.00949 µM): 107%
- viability, T/C (second compound 10 µM, first compound 0.03 µM): 104%
- viability, T/C (second compound 10 µM, first compound 0.0949 µM): 107%
- viability, T/C (second compound 10 µM, first compound 0.3 µM): 92.3%
- viability, T/C (second compound 10 µM, first compound 0.949 µM): 101%
- viability, T/C (second compound 10 µM, first compound 3 µM): 106%

- IC50 [1]: 589 nM
- IC50 [2]: 662 nM
- IC50 [3]: 342 nM
- IC50 [4]: 104 nM
- IC50 [5]: < 3.16 nM
SMILES: CC1COCCN1c1cc(-c2ccnn2C)c2ccnc(-c3ccn[nH]3)c2n1 (centres undefined) + Cc1cncc(-c2nc(NCCc3c[nH]c4ccccc34)c3ncn(C(C)C)c3n2)c1
- viability, T/C (second compound 0.1 µM, first compound 0.00316 µM): 109%
- viability, T/C (second compound 0.1 µM, first compound 0.01 µM): 117%
- viability, T/C (second compound 0.1 µM, first compound 0.0316 µM): 109%
- viability, T/C (second compound 0.1 µM, first compound 0.1 µM): 96.8%
- viability, T/C (second compound 0.1 µM, first compound 0.316 µM): 55.8%
- viability, T/C (second compound 0.1 µM, first compound 1 µM): 45.1%
- viability, T/C (second compound 0.316 µM, first compound 0.00316 µM): 108%
- viability, T/C (second compound 0.316 µM, first compound 0.01 µM): 116%
- viability, T/C (second compound 0.316 µM, first compound 0.0316 µM): 109%
- viability, T/C (second compound 0.316 µM, first compound 0.1 µM): 91.8%
- viability, T/C (second compound 0.316 µM, first compound 0.316 µM): 57.2%
- viability, T/C (second compound 0.316 µM, first compound 1 µM): 46%
- viability, T/C (second compound 1 µM, first compound 0.00316 µM): 109%
- viability, T/C (second compound 1 µM, first compound 0.01 µM): 116%
- viability, T/C (second compound 1 µM, first compound 0.0316 µM): 103%
- viability, T/C (second compound 1 µM, first compound 0.1 µM): 81.7%
- viability, T/C (second compound 1 µM, first compound 0.316 µM): 50.6%
- viability, T/C (second compound 1 µM, first compound 1 µM): 38.5%
- viability, T/C (second compound 3.16 µM, first compound 0.00316 µM): 62.9%
- viability, T/C (second compound 3.16 µM, first compound 0.01 µM): 65%
- viability, T/C (second compound 3.16 µM, first compound 0.0316 µM): 58.8%
- viability, T/C (second compound 3.16 µM, first compound 0.1 µM): 51.3%
- viability, T/C (second compound 3.16 µM, first compound 0.316 µM): 35.1%
- viability, T/C (second compound 3.16 µM, first compound 1 µM): 37.7%
- viability, T/C (second compound 10 µM, first compound 0.00316 µM): 4.51%
- viability, T/C (second compound 10 µM, first compound 0.01 µM): 3.84%
- viability, T/C (second compound 10 µM, first compound 0.0316 µM): 4.82%
- viability, T/C (second compound 10 µM, first compound 0.1 µM): 4.52%
- viability, T/C (second compound 10 µM, first compound 0.316 µM): 4.47%
- viability, T/C (second compound 10 µM, first compound 1 µM): 7.62%

- IC50 (curve of compound): > 3000 nM
SMILES: CCN(c1cc(-c2ccc(CN3CCOCC3)cc2)cc(C(=O)NCc2c(C)cc(C)[nH]c2=O)c1C)C1CCOCC1
- viability, T/C (compound 0.00949 µM): 103% and 101% and 104%
- viability, T/C (compound 0.03 µM): 105% and 99% and 108%
- viability, T/C (compound 0.0949 µM): 109% and 101% and 95.7%
- viability, T/C (compound 0.3 µM): 91.3% and 103% and 98.4%
- viability, T/C (compound 0.949 µM): 100% and 97.4% and 94.9%
- viability, T/C (compound 3 µM): 95.2% and 97.7% and 99.6%
